Test results reported in EP4810493A1, “HETEROCYCLIC CARBONYL DERIVATIVE MODULATOR, PREPARATION METHOD THEREFOR, AND USE THEREOF” (Shanghai Hansoh Biomedical Co., Ltd., priority 2023, dated 2025).
Where two headings read alike, the source gives them in different places.

Tests used:
[1] = Pharmacokinetic determination in SD rats; details: rat, in vivo, po, male SD rats, p.o. 5 mg/kg; for MRT inf: read-out: MRT 0-∞
Description: To investigate the pharmacokinetic behaviours of the example compounds in both plasma and brain of SD rats (test animals) following oral administration at a dose of 5 mg/kg.
2.1 Test drugs: The example compounds of the present invention, made in house.
2.2 Test animals: SD Rat, male.
24 SD Rats, male; p.o. respectively at a dose of 5 mg/kg and an administration volume of 10 mL/kg after the rats were fasted overnight.
Formulation of a drug for oral administration: 0.5% CMC-Na (1% Tween 80).
0.50 g of sodium carboxymethyl cellulose (CMC-Na, viscosity: 800-1200 Cps) was weighed and dissolved in 99 mL of purified water, and 1 ml of Tween 80 was added. The components were mixed thoroughly under stirring to form a clear solution.
The example compound was weighed into a 100 mL glass vial, 80 mL of the solution was added, and the mixture was subjected to ultrasound treatment for 10 minutes to obtain a homogeneous suspension with a concentration of 0.5 mg/mL.
After the test animals were euthanised by CO2, blood samples were collected from the heart and brain tissues were harvested at 0.25 h, 0.5 h, 1 h, 2 h, 4 h, 6 h, 8 h, and 24 h post-dose. Blood was placed in EDTA-2K tubes, and centrifuged at 6000 rpm for 6 min at 4°C to separate the plasma. Brain tissues were rinsed with pre-cold PBS, blotted dry, and weighed. Both plasma and brain samples were stored at -80°C. The animals were fed 4 h after administration.
• 3) 40 uL of plasma sample was precipitated with 160 uL of acetonitrile, mixed, and centrifuged at 3500 × g for 5-20 min. Brain tissues were diluted, homogenised and centrifuged. • 4) 100 uL of the treated supernatant solution was taken for LC/MS/MS analysis to determine the concentration of the test compounds.
• Liquid phase conditions: Shimadzu LC-20AD pump • Mass spectrometry conditions: AB Sciex API 4000 mass spectrometer • Chromatographic column: Phenomenex Gemiu 5 um C18 50 × 4.6 mm • Mobile phase: solution A: 0.1% formic acid in water, solution B: acetonitrile • Flow rate: 0.8 mL/min • Elution time: 0-4.0 min, with eluents as follows:
The main pharmacokinetic parameters were calculated using WinNonlin 8.1.

M4 receptor = target: T1, M4 receptor (Homo sapiens, UniProt P08173); assay: Calcium flux (FLIPR) potentiation assay in cells stably expressing M4 receptor; type: cell-based
T1 construct: expressed in transfected cells
T1 sequence (P08173 1-479): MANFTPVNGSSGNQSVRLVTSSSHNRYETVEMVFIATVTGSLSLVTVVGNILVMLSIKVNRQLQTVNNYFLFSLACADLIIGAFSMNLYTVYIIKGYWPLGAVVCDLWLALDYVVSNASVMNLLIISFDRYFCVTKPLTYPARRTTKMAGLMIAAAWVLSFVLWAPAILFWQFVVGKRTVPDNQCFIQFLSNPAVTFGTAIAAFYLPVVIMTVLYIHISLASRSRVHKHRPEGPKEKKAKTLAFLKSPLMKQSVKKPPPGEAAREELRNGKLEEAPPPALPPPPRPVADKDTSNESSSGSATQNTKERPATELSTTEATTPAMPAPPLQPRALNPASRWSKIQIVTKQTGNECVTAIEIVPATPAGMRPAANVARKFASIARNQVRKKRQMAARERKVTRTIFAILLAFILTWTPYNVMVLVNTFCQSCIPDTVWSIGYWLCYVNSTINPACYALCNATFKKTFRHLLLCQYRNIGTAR
Text: Test example 1. Determination of the effect of the compounds of the present invention on calcium current in cells stably expressing M1-M5 receptors
To detect the potentiating effect of compounds on calcium flux activity in CHO-K1/human M1/3/5 and CHO-K1/Gα15 M2/4 cells.
384-well assay plate, 384-well plate, FLIPR Tip, FLIPR Penta plate reader, Dispendix non-contact nanoliter dispensing system (liquid handling workstation), liquid handler.
Ham's F-12 Nutrient Mix, foetal bovine serum, P/S (Gibco: 15140122), HBSS (Gibco: 14025076), HEPES (Gibco: 15630080), FLIPR calcium 6 assay kit (Molecular Devices: R8190), Probenecid (PBA) (Invitrogen: P36400), Acetylcholine chloride (Sigma: A6625-25G) Complete culture medium: DMEM + 10% FBS + 1X P/S; Cell seeding medium: DMEM + 10% FBS + 1X PS; Assay buffer 1: 1X HBSS + 20 mM HEPES +2.5 mM Probenecid; Assay buffer 2: 1X HBSS + 20 mM HEPES; Cell line: CHO-K1/M1; CHO-K1/M2/Gα15; CHO-K1/M3; CHO-K1/M4/Gα15; CHO-K1/M5.
FLIPR calcium 6 assay kit: Component A was dissolved in Assay buffer 1, and the mixture was shaken for 1-2 min, sub-packaged and stored at -20°C.
• 1) CHO-K1/M1; CHO-K1/M2/Gα15; CHO-K1/M3; CHO-K1/M4/Gα15; and CHO-K1/M5 cell lines were cultured separately in complete culture medium at 37°C, 5% CO2 to 70%-90% confluency. • 2) The cells were digested and resuspended in cell seeding medium, 5,000 cells/well/20 µL were seeded into a 384-well cell culture plate, and the cells were cultured at 37°C, 5% CO2 for 24 hours. • 3) The cell culture plate was taken out of the CO2 incubator and equilibrated at room temperature for 10 minutes. • 4) Component A solution was removed and allowed to equilibrate to room temperature. 20 µL of Component A solution was added to each well of the cell culture plate, and incubated at room temperature in the dark for 1 hour. • 5) Acetylcholine chloride (ACh), a muscarinic receptor agonist, was prepared in Assay buffer 2 at EC20/EC100 concentrations; subsequently, 30 µL of the prepared muscarinic receptor agonist was added to a 384-well agonist plate (PE: 6008590) using a Multidrop Combi; the working solutions of the positive control compound and the test compound were serially diluted at a 3.16-fold gradient and dispensed (450 nL) into a 384-well compound plate (PE: 6008590) using the Dispendix liquid handling workstation; 30 µL of Assay buffer 2 was added to the 384-well compound plate (PE: 6008590) using the Multidrop Combi; the positive control compound and the test compound were diluted to 6X, mixed by shaking, and placed at room temperature until use. • 6) 10 µL of the diluted 6X compound was added to the assay wells of the corresponding 384-well cell plate using the FLIPR Penta, followed by a 2-minute incubation. • 7) 10 µL of the prepared muscarinic receptor agonist was added to the assay wells of the corresponding 384-well cell plate using the FLIPR Penta, with simultaneous data acquisition.
FLIPR Penta was used to read and collect the fluorescence signal value (RFU). The maximum RFU value was used to calculate the percent activation data based on the readings of the Low control (DMSO control group) and High control (ACh EC100) experimental groups {% activation rate = (RFUsample - RFUlow control) / (RFUhigh control - RFUlow control)×100}. The test compound was diluted 3.16X in the reaction system to generate 11 concentration points ranging from 30 µM to […].

[2] = CHO-K1/M4/Gα15 cells, potentiation of acetylcholine (EC20) calcium flux, read-out: M4 FLIPR EC50

SMILES	AUC(0-inf) [1] [ng·h/mL]	Cmax [1] [ng/mL]	Tmax [1] [h]	MRT inf [1] [h]	EC50 (M4 receptor; [2]) [nM]	EC50 (M4 receptor) [nM]
Cc1c2c(c3ncnn3c1C)CN(C(=O)CC1CN(c3ccnc(OC4CC4)c3)C1)C2 [Example 188]	3170	967	1	2.6	20.6	
Cc1c2c(c3ncnn3c1C)CN(C(=O)CC1CN(c3ccc4nc(C(F)F)cn4n3)C1)C2 [Example 189]	3220	1040	1	2.6	13.3	
Cc1c2c(c3nccn3c1C)CN(C(=O)OC1CN(c3ccnc(C(F)F)c3)C1)C2 [Example 141]	8540	3210	0.5	1.7	39.3	
Cc1c2c(n3ncnc3c1Cl)CN(C(=O)CC1CN(c3ncc(C(F)(F)F)cn3)C1)C2 [Example 317, 1-(4-Chloro-5-methyl-6,8-dihydro-7H-pyrrolo[3,4-e][1,24]triazolo[1,5-a]pyridin-7-yl)-2-(1-(5-(trifluoromethyl)pyrimidin-2-yl)azetidin-3-yl)ethan-1-one]	26700	2140	4	11.2	16.9	
Cc1c2c(n3ncnc3c1Cl)CN(C(=O)CC1CN(c3ncc(F)cn3)C1)C2 [Example 346, 1-(4-Chloro-5-methyl-6,8-dihydro-7H-pyrrolo[3,4-e][1,2,4]triazolo[1,5-a]pyridin-7-yl)-2-(1-(5-fluoropyrimidin-2-yl)azetidin-3-yl)ethan-1-one]	11400	1460	1	5.02	32.6	
Cc1c2c(c3ncnn3c1C)CN(C(=O)CC1CN(c3ccc4c(cnn4C)c3)C1)C2 [Example 269]	3640	1330	0.83	2	87.1	
COc1cc(N2CC(OC(=O)N3Cc4c(C)c(C)n5ncnc5c4C3)C2)ccn1 [Example 182]	7050	1710	1	2.8	37	
COc1cc(N2CC(CC(=O)N3Cc4c(C)c(C)n5ncnc5c4C3)C2)c(Cl)cn1 [Example 147]	3260	914	1	2.4	40.9	
CCOc1ccc(N2CC(CC(=O)N3Cc4c(C)c(C)n5ncnc5c4C3)C2)cn1 [Example 304, 1-(5,6-Dimethyl-7,9-dihydro-8H-pyrrolo[3,4-c][1,2,4]triazolo[1,5-a]pyridin-8-yl)-2-(1-(6-ethoxypyridin-3-yl)azetidin-3-yl)ethan-1-one]	4080	2380	0.5	1.32	26.9	
CCn1ncc2cc(N3CC(CC(=O)N4Cc5c(C)c(C)n6ncnc6c5C4)C3)ccc21 [Example 307]	5300	2110	0.75	2.02		17.1
Cc1c2c(c3ncnn3c1C)CN(C(=O)OC1CN(c3ccc4nc(C(F)F)cn4n3)C1)C2 [Example 191]	16100	2840	2	3.9	31	
Cc1c2c(c3ccnn3c1C)CN(C(=O)CC1CN(c3ccnc(C(F)(F)F)c3)C1)C2 [Example 76, 1-(4,5-Dimethyl-2,3-dihydro-1H-pyrrolo[4,3-c]pyrazolo[1,5-a]pyridin-2-yl)-2-{1-[2-(trifluoromethyl)pyridin-4-yl]azetidin-3-yl}ethan-1-one]	6150	1090	2	3.9	40.4	
Cc1c2c(c3ncnn3c1C)CN(C(=O)CC1CN(c3cnc4c(c3)COC4)C1)C2 [Example 270]	12000	3500	0.83	2.5	23.2	
COc1cc(N2CC(CC(=O)N3Cc4c(C)c(C)n5ncnc5c4C3)C2)ccn1 [Example 236]	6710	1090	1.5	4.6	49.1	
